# Test results: patent US8143227B2, “Azithromycin for treatment of skin disorders” (priority 2008, dated 2012)
# Read-outs that look alike come from different tables or passages of the source.
# Key:
# [1] = Azithromycin levels in sebum (Sebutape patches); format: in vivo, human; conditions: for concentration at 42 day: human, sebum, oral
# Description: Sebum was collected from the subjects of Example 1 by use of Sebutape® (CuDerm Corporation, Dallas Tex.). On study days 0, 21, 42, and 70, each subject placed three Sebutape® adhesive patches on each of the forehead, and left and right cheeks on the skin of the face and left the patches in place for 30 to 40 minutes. The patches were then removed, folded in half with the adhesive side inward, placed in a sealed glass vial, and frozen at −20° C. to −70° C. […] Each Sebutape® patch was analyzed for quantity in nanograms of azithromycin.
# [2] = Azithromycin levels in plasma; conditions: for average azithromycin plasma level at steady state: steady state conditions; for AUC / AUC(0-t) / Cmax: human, plasma, po
# Description: Plasma levels of azithromycin were determined as follows. Thirty-nine patients were randomized into one of three treatment groups. Each patient received 40 mg (n=13), 80 mg (n=11), or 120 mg (n=15) of oral azithromycin daily. After the initial dose on day 0, a second dose was not administered until 72 hours later, so as to permit measurement of plasma levels based on a single dose and determination of pharmacokinetic parameters. Blood samples from each patient were taken at times equal to 0 (before dosing), 1, 2, 3, 4, 6, 8, 24, 48, and 72 hours after the initial oral dose. Following 72 hours, each patient received azithromycin daily for the remainder of six weeks (42 days). Blood samples were also taken at times equal to 0 hours (before dosing) and 3 hours after dosing on day 21, and at times equal to 0, 1, 2, 3, 4, 6, 8, and 24 hours following the last dose given on day 42. Plasma samples obtained from the blood samples were stored at −20° C. or lower after collection until processing and analysis.
# The amount of azithromycin in plasma was quantified using a validated high pressure liquid chromatographic assay with mass spectroscopy detection. Standards and samples were treated, by pipet addition, with 10.0 microliter of 1:1 acetonitrile/water. The standards and samples were then treated, by pipet addition, with 10.0 microliter of an Azaerythromycin A internal standard solution, followed by the addition of 2.0 mL of the mobile phase, which contained a 250:150:100:0.5:0.1 mixture of ethyl acetate, methanol, acetonitrile, formic acid and morpholine. After tightening Teflon caps onto the extraction jars containing the treated standards and samples, the jars were rotated for 2 hours at 1 rps. Next, 0.20 mL aliquots were removed from each jar and transferred to HPLC autosampler vials, and the vials capped and placed in the autosampler tray for LC-MS-MS analysis. A 5 microliter aliquot was injected from each vial into a suitable high pressure liquid chromatograph (HPLC) with suitable mass spectrophotometry-mass spectrometery detection, such as a Sciex API 3000 LC-MS-MS (GenTech Scientific, Inc., Arcade, N.Y.) with heated nebulizer source. The column used was PVA-Sil, 5 micron, 4.0×50 mm cartridge (Waters Corporation, Milford, Mass.). The flow rate was 1 ml/minute. To determine the amount of azithromycin, the peak area of the m/z 750→592 azithromycin product ion was measured against the peak area of the m/z 736→578 azaerythromycin A internal standard product ion.
# Plasma azithromycin concentrations were tabulated for each of the subjects for each dose group 40 mg/day, 80 mg/day, and 120 mg/day, respectively. The pharmacokinetic evaluation was based on individual plasma concentration-time data of azithromycin and was performed using model-independent analysis methods within WinNonlin™ version 5.0.1 (Pharsight Corporation, Mountain View, Calif.). […] Cmax, the maximum plasma concentration, was obtained directly from the concentration-time data. AUClast, the area under the plasma concentration-time curve from time 0 to time t (the time of last quantifiable plasma concentration), was calculated using the linear trapezoidal rule from predose to the last quantifiable plasma concentration. AUC24, the area under the plasma concentration-time curve from time 0 to time t=24 hours, was calculated in a manner similar to the calculation for AUClast except from predose to 24 hours.
# acne = conditions: Kus 2005, cited from earlier work
# [3] = Azithromycin levels in skin (follicular biopsy); format: in vivo, human; conditions: for Skin Concentration (median): follicular biopsy
# Description: Standardized follicular biopsy samples, representative of the pilosebaceous unit of the skin, were obtained from the upper back from each of the subjects of Example 1 on study days 0, 21, 42, and 70. The samples were analyzed to determine the tissue level of azithromycin in each biopsy sample.
# [4] = 40 mg/day, Day 70 (28 days after last dose)
# [5] = 80 mg/day, Day 70 (28 days after last dose)
# [6] = 120 mg/day, Day 70 (28 days after last dose)
smiles,measurement,setting,value
"CC[C@H]1OC(=O)[C@H](C)[C@@H](O[C@H]2C[C@@](C)(OC)[C@@H](O)[C@H](C)O2)[C@H](C)[C@@H](O[C@@H]2O[C@H](C)C[C@H](N(C)C)[C@H]2O)[C@](C)(O)C[C@@H](C)CN(C)[C@H](C)[C@@H](O)[C@]1(C)O [Azithromycin, 9-deoxo-9a-aza-9a-methyl-9a-homoerythromycin A]",Sebum Concentration (median) ng per sample,"[1]; 40 mg/day, Day 0",0.00 ng per sample
same,Sebum Concentration (median),"[1]; 40 mg/day, Day 0, ng per sample divided by 1.38 mg",.00 ng/mg
same,Sebum Concentration (median),"[1]; 40 mg/day, Day 0, ng/mg times […]",.00 ng/µL
same,Sebum Concentration (median) ng per sample,"[1]; 40 mg/day, Day 21",0.00 ng per sample
same,Sebum Concentration (median),"[1]; 40 mg/day, Day 21, ng per sample divided by 1.38 mg",.00 ng/mg
same,Sebum Concentration (median),"[1]; 40 mg/day, Day 21, ng/mg times […]",.00 ng/µL
same,Sebum Concentration (median) ng per sample,"[1]; 40 mg/day, Day 42",0.19 ng per sample
same,Sebum Concentration (median),"[1]; 40 mg/day, Day 42, ng per sample divided by 1.38 mg",.14 ng/mg
same,Sebum Concentration (median),"[1]; 40 mg/day, Day 42, ng/mg times […]",.12 ng/µL
same,Sebum Concentration (median) ng per sample,[1]; [4],0.00 ng per sample
same,Sebum Concentration (median),"[1]; 40 mg/day, Day 70, ng per sample divided by 1.38 mg",.00 ng/mg
same,Sebum Concentration (median),"[1]; 40 mg/day, Day 70, ng/mg times […]",.00 ng/µL
same,Sebum Concentration (median) ng per sample,"[1]; 80 mg/day, Day 0",0.00 ng per sample
same,Sebum Concentration (median),"[1]; 80 mg/day, Day 0, ng per sample divided by 1.38 mg",.00 ng/mg
same,Sebum Concentration (median),"[1]; 80 mg/day, Day 0, ng/mg times […]",.00 ng/µL
same,Sebum Concentration (median) ng per sample,"[1]; 80 mg/day, Day 21",0.79 ng per sample
same,Sebum Concentration (median),"[1]; 80 mg/day, Day 21, ng per sample divided by 1.38 mg",.57 ng/mg
same,Sebum Concentration (median),"[1]; 80 mg/day, Day 21, ng/mg times […]",.50 ng/µL
same,Sebum Concentration (median) ng per sample,"[1]; 80 mg/day, Day 42",0.84 ng per sample
same,Sebum Concentration (median),"[1]; 80 mg/day, Day 42, ng per sample divided by 1.38 mg",.61 ng/mg
same,Sebum Concentration (median),"[1]; 80 mg/day, Day 42, ng/mg times […]",.53 ng/µL
same,Sebum Concentration (median) ng per sample,[1]; [5],0.00 ng per sample
same,Sebum Concentration (median),"[1]; 80 mg/day, Day 70, ng per sample divided by 1.38 mg",.00 ng/mg
same,Sebum Concentration (median),"[1]; 80 mg/day, Day 70, ng/mg times […]",.00 ng/µL
same,Sebum Concentration (median) ng per sample,"[1]; 120 mg/day, Day 0",0.00 ng per sample
same,Sebum Concentration (median),"[1]; 120 mg/day, Day 0, ng per sample divided by 1.38 mg",.00 ng/mg
same,Sebum Concentration (median),"[1]; 120 mg/day, Day 0, ng/mg times […]",.00 ng/µL
same,Sebum Concentration (median) ng per sample,"[1]; 120 mg/day, Day 21",0.76 ng per sample
same,Sebum Concentration (median),"[1]; 120 mg/day, Day 21, ng per sample divided by 1.38 mg",.55 ng/mg
same,Sebum Concentration (median),"[1]; 120 mg/day, Day 21, ng/mg times […]",.48 ng/µL
same,Sebum Concentration (median) ng per sample,"[1]; 120 mg/day, Day 42",0.88 ng per sample
same,Sebum Concentration (median) ng per sample,"[1]; 120 mg/day, Day 42, listed as azithromycin",about 0.88 ng per sample
same,Sebum Concentration (median),"[1]; 120 mg/day, Day 42, ng per sample divided by 1.38 mg",.64 ng/mg
same,Sebum Concentration (median),"[1]; 120 mg/day, Day 42, ng/mg times […]",.55 ng/µL
same,Sebum Concentration (median) ng per sample,[1]; [6],0.00 ng per sample
same,Sebum Concentration (median),"[1]; 120 mg/day, Day 70, ng per sample divided by 1.38 mg",.00 ng/mg
same,Sebum Concentration (median),"[1]; 120 mg/day, Day 70, ng/mg times […]",.00 ng/µL
same,concentration at 42 day,"[1]; 120 mg/day, Day 42, ng per sample divided by 1.38 mg, read-out: Sebum Concentration (median) ng/mg",~640 ng/g
same,concentration at 42 day,"[1]; 120 mg/day, Day 42, ng/mg times 0.87 mg/μl, read-out: Sebum Concentration (median)",~550 ng/mL
same,average maximum azithromycin plasma level,"[2]; 40 mg/day group, after administration on day 42",about 16 ng/ml
same,average maximum azithromycin plasma level,"[2]; 40 mg/day group, after initial dose",about 15 ng/ml
same,average azithromycin plasma level at steady state,[2]; 40 mg/day group,about 4 ng/ml
same,average maximum azithromycin plasma level,"[2]; 80 mg/day group, after administration on day 42",~54 ng/mL
same,average maximum azithromycin plasma level,"[2]; 80 mg/day group, after initial dose",~59 ng/mL
same,average azithromycin plasma level at steady state,[2]; 80 mg/day group,~10 ng/mL
same,average maximum azithromycin plasma level,"[2]; 120 mg/day group, after administration on day 42",~68 ng/mL
same,average maximum azithromycin plasma level,"[2]; 120 mg/day group, after initial dose",~45 ng/mL
same,average azithromycin plasma level at steady state,[2]; 120 mg/day group,~22 ng/mL
same,maximum plasma concentration compared with MIC,"[2]; day 0 and day 42, all dosages tested",less than the MIC of azithromycin for P. acnes
same,AUC,[2]; 40 mg,44.7 ng·h/mL
same,AUC(0-t),[2]; 40 mg,73.4 ng·h/mL
same,Cmax,[2]; 40 mg,7.08 ng/mL
same,AUC,[2]; 40 mg/day,132 ng·h/mL
same,Cmax,[2]; 40 mg/day,13.8 ng/mL
same,AUC,[2]; 80 mg,294 ng·h/mL
same,AUC(0-t),[2]; 80 mg,456 ng·h/mL
same,Cmax,[2]; 80 mg,60.3 ng/mL
same,AUC,[2]; 80 mg/day,528 ng·h/mL
same,Cmax,[2]; 80 mg/day,53.9 ng/mL
same,AUC,[2]; 120 mg,293 ng·h/mL
same,AUC(0-t),[2]; 120 mg,433 ng·h/mL
same,Cmax,[2]; 120 mg,57.9 ng/mL
same,AUC,[2]; 120 mg/day,752 ng·h/mL
same,Cmax,[2]; 120 mg/day,92.9 ng/mL
same,time of peak average plasma level,"[2]; post administration of initial dose, each treatment group",3 h
same,efficacy in the treatment of acne,"acne; 500 mg 3, then 2 consecutive days per week, then once weekly, 4 weeks each",as effective as doxycycline
same,subjects who left the study due to gastrointestinal side effects,acne; of 25 subjects administered azithromycin,two
same,clearance of azithromycin from the pilosebaceous apparatus,[3]; after attaining saturation or near saturation levels,more than 28 days
same,Skin Concentration (median),"[3]; 40 mg/day, Day 0",0.00 ng/sample
same,Skin Concentration (median),"[3]; 40 mg/day, Day 21",0.34 ng/sample
same,Skin Concentration (median),"[3]; 40 mg/day, Day 42",0.59 ng/sample
same,Skin Concentration (median),[3]; [4],0.00 ng/sample
same,Skin Concentration (median),"[3]; 80 mg/day, Day 0",0.00 ng/sample
same,Skin Concentration (median),"[3]; 80 mg/day, Day 21",1.34 ng/sample
same,Skin Concentration (median),"[3]; 80 mg/day, Day 42",1.68 ng/sample
same,Skin Concentration (median),[3]; [5],0.47 ng/sample
same,Skin Concentration (median),"[3]; 120 mg/day, Day 0",0.00 ng/sample
same,Skin Concentration (median),"[3]; 120 mg/day, Day 21",1.65 ng/sample
same,Skin Concentration (median),"[3]; 120 mg/day, Day 42",1.99 ng/sample
same,Skin Concentration (median),[3]; [6],0.50 ng/sample
same,time to effective steady state level of azithromycin in skin,"[3]; low doses, following commencement of therapy, no initial spike dose",≤ 20 days
same,"dosage at which the skin becomes saturated, theorized from the data",[3]; theorized from Table 3 data,about 95 mg/day
